system: Monoclonal antibody (mAb); assay: Binding affinity towards monoclonal antibody (MAb) using ELISA assay, activity expressed relative to WQMGHS=1

Compound	Relative activity
CSCC[C@@H](NC(=O)[C@@H](CCC(N)=O)NC(=O)[C@@H](N)Cc1c[nH]c2ccccc12)C(=O)NCC(=O)N[C@@H](Cc1c[nH]cn1)C(=O)N[C@H](CO)C(=O)O	0.81
CSCC[C@@H](NC(=O)[C@H](CCC(N)=O)NC(=O)[C@H](N)Cc1c[nH]c2ccccc12)C(=O)NCC(=O)N[C@@H](Cc1c[nH]cn1)C(=O)N[C@@H](CO)C(=O)O	0.75
CSCC[C@@H](NC(=O)[C@H](CCC(N)=O)NC(=O)[C@@H](N)Cc1c[nH]c2ccccc12)C(=O)NCC(=O)N[C@H](Cc1c[nH]cn1)C(=O)N[C@@H](CO)C(=O)O	1.31
CSCC[C@H](NC(=O)[C@@H](CCC(N)=O)NC(=O)[C@H](N)Cc1c[nH]c2ccccc12)C(=O)NCC(=O)N[C@@H](Cc1c[nH]cn1)C(=O)N[C@H](CO)C(=O)O	0.88
CSCC[C@H](NC(=O)[C@H](CCC(N)=O)NC(=O)[C@@H](N)Cc1c[nH]c2ccccc12)C(=O)NCC(=O)N[C@@H](Cc1c[nH]cn1)C(=O)N[C@@H](CO)C(=O)O	1
CSCC[C@@H](NC(=O)[C@@H](CCC(N)=O)NC(=O)[C@@H](N)Cc1c[nH]c2ccccc12)C(=O)NCC(=O)N[C@H](Cc1c[nH]cn1)C(=O)N[C@H](CO)C(=O)O	0.36
CSCC[C@@H](NC(=O)[C@H](CCC(N)=O)NC(=O)[C@@H](N)Cc1c[nH]c2ccccc12)C(=O)NCC(=O)N[C@@H](Cc1c[nH]cn1)C(=O)N[C@@H](CO)C(=O)O	1.01
CSCC[C@@H](NC(=O)[C@H](CCC(N)=O)NC(=O)[C@@H](N)Cc1c[nH]c2ccccc12)C(=O)NCC(=O)N[C@H](Cc1c[nH]cn1)C(=O)N[C@H](CO)C(=O)O	0.33
CSCC[C@H](NC(=O)[C@H](CCC(N)=O)NC(=O)[C@H](N)Cc1c[nH]c2ccccc12)C(=O)NCC(=O)N[C@@H](Cc1c[nH]cn1)C(=O)N[C@@H](CO)C(=O)O	1.33
CSCC[C@@H](NC(=O)[C@@H](CCC(N)=O)NC(=O)[C@H](N)Cc1c[nH]c2ccccc12)C(=O)NCC(=O)N[C@@H](Cc1c[nH]cn1)C(=O)N[C@H](CO)C(=O)O	0.43
CSCC[C@H](NC(=O)[C@H](CCC(N)=O)NC(=O)[C@@H](N)Cc1c[nH]c2ccccc12)C(=O)NCC(=O)N[C@H](Cc1c[nH]cn1)C(=O)N[C@@H](CO)C(=O)O	0.85
CSCC[C@@H](NC(=O)[C@@H](CCC(N)=O)NC(=O)[C@H](N)Cc1c[nH]c2ccccc12)C(=O)NCC(=O)N[C@@H](Cc1c[nH]cn1)C(=O)N[C@@H](CO)C(=O)O	1.89
CSCC[C@H](NC(=O)[C@@H](CCC(N)=O)NC(=O)[C@@H](N)Cc1c[nH]c2ccccc12)C(=O)NCC(=O)N[C@@H](Cc1c[nH]cn1)C(=O)N[C@H](CO)C(=O)O	0.86
CSCC[C@@H](NC(=O)[C@@H](CCC(N)=O)NC(=O)[C@@H](N)Cc1c[nH]c2ccccc12)C(=O)NCC(=O)N[C@H](Cc1c[nH]cn1)C(=O)N[C@@H](CO)C(=O)O	1.58

Now from value to compound:

Relative activity	Compound
0.82	CSCC[C@H](NC(=O)[C@@H](CCC(N)=O)NC(=O)[C@@H](N)Cc1c[nH]c2ccccc12)C(=O)NCC(=O)N[C@@H](Cc1c[nH]cn1)C(=O)N[C@@H](CO)C(=O)O
1.06	CSCC[C@H](NC(=O)[C@H](CCC(N)=O)NC(=O)[C@@H](N)Cc1c[nH]c2ccccc12)C(=O)NCC(=O)N[C@H](Cc1c[nH]cn1)C(=O)N[C@H](CO)C(=O)O
1.16	CSCC[C@@H](NC(=O)[C@H](CCC(N)=O)NC(=O)[C@H](N)Cc1c[nH]c2ccccc12)C(=O)NCC(=O)N[C@H](Cc1c[nH]cn1)C(=O)N[C@@H](CO)C(=O)O
0.64	CSCC[C@H](NC(=O)[C@@H](CCC(N)=O)NC(=O)[C@@H](N)Cc1c[nH]c2ccccc12)C(=O)NCC(=O)N[C@H](Cc1c[nH]cn1)C(=O)N[C@@H](CO)C(=O)O
0.44	CSCC[C@@H](NC(=O)[C@@H](CCC(N)=O)NC(=O)[C@H](N)Cc1c[nH]c2ccccc12)C(=O)NCC(=O)N[C@H](Cc1c[nH]cn1)C(=O)N[C@H](CO)C(=O)O
1.39	CSCC[C@H](NC(=O)[C@@H](CCC(N)=O)NC(=O)[C@H](N)Cc1c[nH]c2ccccc12)C(=O)NCC(=O)N[C@H](Cc1c[nH]cn1)C(=O)N[C@@H](CO)C(=O)O
1	CSCC[C@H](NC(=O)[C@H](CCC(N)=O)NC(=O)[C@H](N)Cc1c[nH]c2ccccc12)C(=O)NCC(=O)N[C@H](Cc1c[nH]cn1)C(=O)N[C@H](CO)C(=O)O
0.6	CSCC[C@H](NC(=O)[C@@H](CCC(N)=O)NC(=O)[C@H](N)Cc1c[nH]c2ccccc12)C(=O)NCC(=O)N[C@@H](Cc1c[nH]cn1)C(=O)N[C@@H](CO)C(=O)O
0.75	CSCC[C@@H](NC(=O)[C@@H](CCC(N)=O)NC(=O)[C@@H](N)Cc1c[nH]c2ccccc12)C(=O)NCC(=O)N[C@@H](Cc1c[nH]cn1)C(=O)N[C@@H](CO)C(=O)O
0.83	CSCC[C@H](NC(=O)[C@H](CCC(N)=O)NC(=O)[C@H](N)Cc1c[nH]c2ccccc12)C(=O)NCC(=O)N[C@@H](Cc1c[nH]cn1)C(=O)N[C@H](CO)C(=O)O
0.78	CSCC[C@H](NC(=O)[C@H](CCC(N)=O)NC(=O)[C@H](N)Cc1c[nH]c2ccccc12)C(=O)NCC(=O)N[C@H](Cc1c[nH]cn1)C(=O)N[C@@H](CO)C(=O)O
0.9	CSCC[C@@H](NC(=O)[C@@H](CCC(N)=O)NC(=O)[C@H](N)Cc1c[nH]c2ccccc12)C(=O)NCC(=O)N[C@H](Cc1c[nH]cn1)C(=O)N[C@@H](CO)C(=O)O
0.89	CSCC[C@@H](NC(=O)[C@H](CCC(N)=O)NC(=O)[C@H](N)Cc1c[nH]c2ccccc12)C(=O)NCC(=O)N[C@@H](Cc1c[nH]cn1)C(=O)N[C@H](CO)C(=O)O
1.17	CSCC[C@@H](NC(=O)[C@H](CCC(N)=O)NC(=O)[C@@H](N)Cc1c[nH]c2ccccc12)C(=O)NCC(=O)N[C@@H](Cc1c[nH]cn1)C(=O)N[C@H](CO)C(=O)O
0.64	CSCC[C@H](NC(=O)[C@H](CCC(N)=O)NC(=O)[C@@H](N)Cc1c[nH]c2ccccc12)C(=O)NCC(=O)N[C@@H](Cc1c[nH]cn1)C(=O)N[C@H](CO)C(=O)O
